Data reported in patent publication US11452682B2, “Toothpaste composition for alleviating dentin hyperesthesia” (HYSENSBIO, priority 2018, dated 2022).

system: DSPP gene; assay: mRNA level of DSPP gene in MDPC-23 cells by RT-PCR and real-time PCR; format: cell-based, mouse; conditions: cultured 48 hours with peptide, relative ratio to mRNA level in untreated control, Gapdh internal control, repeated three times
Experimental: The MDPC-23 cells cultured in Example 2-1 were treated with the peptides of each group synthesized in Example 1, then cultured for 48 hours. The mRNA level of the DSPP, an odontoblast differentiation marker gene, expressed in the MDPC-23 cells were measured, and the measured mRNA level of each DSPP gene was converted into a relative ratio to the mRNA level of the DSPP gene measured in control (Tables 13 to 24). In addition, the average value of the mRNA level of the DSPP gene measured according to the peptides of each group was compared (FIG. 1B). At this time, as a control, MDPC-23 cells that were not treated with the peptide promoting differentiation of odontoblast were used.
The expression level of the DSPP gene was measured through RT-PCR and real-time PCR analysis: Specifically, total RNA was extracted from the MDPC-23 cells using TRIzol reagent. 2 μg of the total RNA, 1 μl of reverse transcriptase, and 0.5 μg of oligo (oligo; dT) were used to synthesize cDNA. The synthesized cDNA was used in a real-time polymerase chain reaction. The real-time polymerase chain reaction was performed on an ABI PRISM 7500 sequence detection system (Applied Biosystems) and an SYBR GREEN PCR Master Mix (Takara, Japan). The real-time polymerase chain reaction was performed under conditions of 94° C., 1 min; 95° C., 15 sec; 60° C., 34 sec for 40 cycles. Results were analyzed by a comparative cycle threshold (CT) method. At this time, the Gapdh gene was used as the internal control group, and the measured value was repeated three times. The mean value and standard deviation value thereof were used.

Row | Substance | mRNA level of Dspp gene Mean
1 | 4 (KYQRRRRNKY; Novel peptide) [compound 4] | 1.855
2 | 82 (KYKQRKRNYK; Novel peptide) [compound 82] | 3.361
3 | 63 (KYRQKKRSYK; Novel peptide) [compound 63] | 1.769
4 | 84 (KYKQRRRNYK; Novel peptide) [compound 84] | 3.702
5 | 14 (KYQRKRKSKY; Novel peptide) [compound 14] | 1.846
6 | 18 (KYQRRKRNYK; Novel peptide) [compound 18] | 2.319
7 | 33 (KYRQRKKNKY; Novel peptide) [compound 33] | 1.712
8 | 13 (KYQRKKKSKY; Novel peptide) [compound 13] | 1.685
9 | 12 (KYQRRRRSKY; Novel peptide) [compound 12] | 1.548
10 | 67 (KYKQRRKNKY; Novel peptide) [compound 67] | 1.777
11 | 32 (KYQRKRRSYK; Novel peptide) [compound 32] | 2.219
12 | 94 (KYKQKRKSYK; Novel peptide) [compound 94] | 3.836
13 | 74 (KYKQRKRSKY; Novel peptide) [compound 74] | 2.011
14 | 64 (KYRQKRRSYK; Novel peptide) [compound 64] | 1.967
15 | 59 (KYRQRRKSYK; Novel peptide) [compound 59] | 1.792
16 | 92 (KYKQRRRSYK; Novel peptide) [compound 92] | 4.211
17 | 88 (KYKQKRRNYK; Novel peptide) [compound 88] | 4.021
18 | 36 (KYRQRRRNKY; Novel peptide) [compound 36] | 2.319
19 | 89 (KYKQRKKSYK; Novel peptide) [compound 89] | 4.211
20 | 16 (KYQRKRRSKY; Novel peptide) [compound 16] | 1.739
21 | 54 (KYRQKRKNYK; Novel peptide) [compound 54] | 1.437
22 | 77 (KYKQKKKSKY; Novel peptide) [compound 77] | 1.729

Row | Substance | mRNA level of Dspp gene Mean
23 | 76 (KYKQRRRSKY; Novel peptide) [compound 76] | 2.351
24 | 15 (KYQRKKRSKY; Novel peptide) [compound 15] | 1.964
25 | 66 (KYKQRKRNKY; Novel peptide) [compound 66] | 1.627
26 | 17 (KYQRRKKNYK; Novel peptide) [compound 17] | 2.117
27 | 49 (KYRQRKKNYK; Novel peptide) [compound 49] | 1.923
28 | 42 (KYRQRKRSKY; Novel peptide) [compound 42] | 1.586
29 | 91 (KYKQRRKSYK; Novel peptide) [compound 91] | 4.362
30 | 45 (KYRQKKKSKY; Novel peptide) [compound 45] | 1.532
31 | 7 (KYQRKKRNKY; Novel peptide) [compound 7] | 1.864
32 | 44 (KYRQRRRSKY; Novel peptide) [compound 44] | 1.793
33 | 43 (KYRQRRKSKY; Novel peptide) [compound 43] | 1.669
34 | 57 (KYRQRKKSYK; Novel peptide) [compound 57] | 2.039
35 | 29 (KYQRKKKSYK; Novel peptide) [compound 29] | 1.883
36 | 22 (KYQRKRKNYK; Novel peptide) [compound 22] | 2.412
37 | 56 (KYRQKRRNYK; Novel peptide) [compound 56] | 1.701
38 | 50 (KYRQRKRNYK; Novel peptide) [compound 50] | 1.887
39 | 6 (KYQRKRKNKY; Novel peptide) [compound 6] | 1.746
40 | 55 (KYRQKKRNYK; Novel peptide) [compound 55] | 1.663
41 | 78 (KYKQKRKSKY; Novel peptide) [compound 78] | 2.635
42 | 53 (KYRQKKKNYK; Novel peptide) [compound 53] | 1.592
43 | 5 (KYQRKKKNKY; Novel peptide) [compound 5] | 1.639
44 | 11 (KYQRRRKSKY; Novel peptide) [compound 11] | 1.639

Row | Substance | mRNA level of Dspp gene Mean
45 | 80 (KYKQKRRSKY; Novel peptide) [compound 80] | 1.837
46 | 87 (KYKQKKRNYK; Novel peptide) [compound 87] | 3.888
47 | 52 (KYRQRRRNYK; Novel peptide) [compound 52] | 2.019
48 | 38 (KYRQKRKNKY; Novel peptide) [compound 38] | 2.116
49 | 93 (KYKQKKKSYK; Novel peptide) [compound 93] | 4.525
50 | 25 (KYQRRKKSYK; Novel peptide) [compound 25] | 2.371
51 | 23 (KYQRKKRNYK; Novel peptide) [compound 23] | 2.171
52 | 69 (KYKQKKKNKY; Novel peptide) [compound 69] | 2.011
53 | 81 (KYKQRKKNYK; Novel peptide) [compound 81] | 3.092
54 | 40 (KYRQKRRNKY; Novel peptide) [compound 40] | 2.219
55 | 79 (KYKQKKRSKY; Novel peptide) [compound 79] | 2.231
56 | 61 (KYRQKKKSYK; Novel peptide) [compound 61] | 2.301
57 | 9 (KYQRRKKSKY; Novel peptide) [compound 9] | 1.854
58 | 70 (KYKQKRKNKY; Novel peptide) [compound 70] | 1.927
59 | 65 (KYKQRKKNKY; Novel peptide) [compound 65] | 1.723
60 | 21 (KYQRKKKNYK; Novel peptide) [compound 21] | 1.893
61 | 95 (KYKQKKRSYK; Novel peptide) [compound 95] | 4.62
62 | 48 (KYRQKRRSKY; Novel peptide) [compound 48] | 1.558
63 | 68 (KYKQRRRNKY; Novel peptide) [compound 68] | 1.432
64 | 85 (KYKQKKKNYK; Novel peptide) [compound 85] | 3.67
65 | 86 (KYKQKRKNYK; Novel peptide) [compound 86] | 3.705
66 | 2 (KYQRRKRNKY; Novel peptide) [compound 2] | 1.646

Row | Substance | mRNA level of Dspp gene Mean
67 | 39 (KYRQKKRNKY; Novel peptide) [compound 39] | 1.712
68 | 41 (KYRQRKKSKY; Novel peptide) [compound 41] | 1.546
69 | 83 (KYKQRRKNYK; Novel peptide) [compound 83] | 3.572
70 | 30 (KYQRKRKSYK; Novel peptide) [compound 30] | 2.512
71 | 34 (KYRQRKRNKY; Novel peptide) [compound 34] | 1.931
72 | 10 (KYQRRKRSKY; Novel peptide) [compound 10] | 1.746
73 | 90 (KYKQRKRSYK; Novel peptide) [compound 90] | 4.811
74 | 24 (KYQRKRRNYK; Novel peptide) [compound 24] | 2.212
75 | 28 (KYQRRRRSYK; Novel peptide) [compound 28] | 2.453
76 | 1 (KYQRRKKNKY; Novel peptide) [compound 1] | 1.754
77 | 60 (KYRQRRRSYK; Novel peptide) [compound 60] | 2.107
78 | 51 (KYRQRRKNYK; Novel peptide) [compound 51] | 1.601
79 | 35 (KYRQRRKNKY; Novel peptide) [compound 35] | 1.983
80 | 96 (KYKQKRRSYK; Novel peptide) [compound 96] | 5.211
81 | 19 (KYQRRRKNYK; Novel peptide) [compound 19] | 1.931
82 | 73 (KYKQRKKSKY; Novel peptide) [compound 73] | 2.035
83 | 47 (KYRQKKRSKY; Novel peptide) [compound 47] | 1.697
84 | 31 (KYQRKKRSYK; Novel peptide) [compound 31] | 2.371
85 | 71 (KYKQKKRNKY; Novel peptide) [compound 71] | 1.879
86 | 58 (KYRQRKRSYK; Novel peptide) [compound 58] | 1.998
87 | 46 (KYRQKRKSKY; Novel peptide) [compound 46] | 1.887
